Experimental data taken from PubChem BioAssay (NCI).
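Results reflect a 48-hour exposure of cells in 96-well plates to compound at five concentrations. TGI: total growth inhibition.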

Assays:
Experiment in all cases: NCI tumour cell line growth inhibition, 48 h
OVCAR-3 ovarian = tested on: OVCAR-3 ovarian
CCRF-CEM leukemia = tested on: CCRF-CEM leukemia
TK-10 renal = tested on: TK-10 renal
MOLT-4 leukemia = tested on: MOLT-4 leukemia
UACC-62 melanoma = tested on: UACC-62 melanoma
SF-295 CNS = tested on: SF-295 CNS
COLO 205 colon = tested on: COLO 205 colon
SR leukemia = tested on: SR leukemia
UACC-257 melanoma = tested on: UACC-257 melanoma
NCI-H522 lung = tested on: NCI-H522 lung
HOP-18 NSCLC = tested on: HOP-18 NSCLC
SW-620 colon = tested on: SW-620 colon
SK-MEL-5 melanoma = tested on: SK-MEL-5 melanoma
M14 melanoma = tested on: M14 melanoma
DMS 114 small cell lung = tested on: DMS 114 small cell lung
SK-MEL-2 melanoma = tested on: SK-MEL-2 melanoma
LXFL 529 NSCLC = tested on: LXFL 529 NSCLC
RXF-631 renal = tested on: RXF-631 renal
KM20L2 colon = tested on: KM20L2 colon
SNB-19 CNS = tested on: SNB-19 CNS
RXF 393 renal = tested on: RXF 393 renal
SNB-78 CNS = tested on: SNB-78 CNS
HCC-2998 colon = tested on: HCC-2998 colon
HCT-15 colon = tested on: HCT-15 colon
786-0 renal = tested on: 786-0 renal
OVCAR-8 ovarian = tested on: OVCAR-8 ovarian
SN12C renal = tested on: SN12C renal
CAKI-1 renal = tested on: CAKI-1 renal
HOP-92 NSCLC = tested on: HOP-92 NSCLC
SNB-75 CNS = tested on: SNB-75 CNS
SK-MEL-28 melanoma = tested on: SK-MEL-28 melanoma
SK-OV-3 ovarian = tested on: SK-OV-3 ovarian
A549 NSCLC = tested on: A549 NSCLC
XF 498 CNS = tested on: XF 498 CNS
RPMI-8226 leukemia = tested on: RPMI-8226 leukemia
A498 renal = tested on: A498 renal
NCI-H460 lung = tested on: NCI-H460 lung
ACHN renal = tested on: ACHN renal
SF-268 CNS = tested on: SF-268 CNS
UO-31 renal = tested on: UO-31 renal
K-562 leukemia = tested on: K-562 leukemia
HT29 colon = tested on: HT29 colon
IGROV1 ovarian = tested on: IGROV1 ovarian
HCT-116 colon = tested on: HCT-116 colon
U251 CNS = tested on: U251 CNS
HOP-62 NSCLC = tested on: HOP-62 NSCLC
HL-60(TB) leukemia = tested on: HL-60(TB) leukemia
KM12 colon = tested on: KM12 colon
OVCAR-5 ovarian = tested on: OVCAR-5 ovarian
SF-539 CNS = tested on: SF-539 CNS
DMS 273 small cell lung = tested on: DMS 273 small cell lung
NCI-H23 lung = tested on: NCI-H23 lung
NCI-H226 lung = tested on: NCI-H226 lung
LOX IMVI melanoma = tested on: LOX IMVI melanoma
OVCAR-4 ovarian = tested on: OVCAR-4 ovarian
MALME-3M melanoma = tested on: MALME-3M melanoma
EKVX NSCLC = tested on: EKVX NSCLC

Measured: TGI

Cc1cc(Cl)ccc1NC(=O)CC/C(CC(=O)C(C)C)=N\NC(=O)C[n+]1ccccc1
> 100 µM: all assays above
